Eleven compounds from ChEMBL document CHEMBL1201862, “PubChem BioAssay data set” (2004) can be followed below.

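Following 48 hours of exposure in 96-well plates, responses at five concentrations were used to interpolate endpoints linearly. GI50 marks 50% less growth.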 Activity calls are given as the source filed them. Cut-off read from the data, not from the text of the source: active = GI50 up to about 1.1 µM and inactive = higher. A value given as a limit tells only on which side of the number the result lay.

Some test systems named below: A498; COLO 205; EKVX; HCC 2998; HCT-116; HCT-15; HOP-62; HOP-92; M14; NCI-H23; NCI/ADR-RES; OVCAR-3; OVCAR-8; RXF 393; SF-295; SNB-19; SNB-75; SR; UACC-62; Malme-3M.
Holding throughout (test): NCI anticancer screen, dose series, 48 h

Turning to `O=C(/C=C/c1ccccc1)N1CCCCC1`, the GI50 was > 100 µM (inactive) in the experiment with A498; > 100 µM (inactive) in the experiment on COLO 205; > 100 µM (inactive) with EKVX; > 100 µM (inactive) in the experiment on HCC 2998; > 100 µM (inactive) in the experiment with HCT-116; over 100 µM with HCT-15. For the same compound, the GI50 in the experiment with HOP-62, with HOP-92, in the experiment with M14, in the experiment with NCI-H23, in the experiment on NCI/ADR-RES and in the experiment with OVCAR-3 was > 100 µM (inactive) each time. Further, the GI50 with OVCAR-8 was > 100 µM (inactive); in the experiment on RXF 393, > 100 µM (inactive); in the experiment with SF-295 it was > 100 µM (inactive); in the experiment with SNB-19, > 100 µM (inactive); in the experiment with SNB-75, 15.2 µM (inactive); in the experiment with SR it was > 100 µM (inactive). Also, the GI50 with UACC-62 was > 100 µM (inactive).

Regarding `Nc1nc(SCCc2ccccc2)c2nc[nH]c2n1`, the GI50 with A498 was 19.1 µM (inactive); in the experiment with EKVX, 25.2 µM (inactive); with HCC 2998, 25.9 µM (inactive); with HCT-116 it was 68.5 µM (inactive); in the experiment with HCT-15, 37.2 µM; with HOP-62, 50.5 µM (inactive). Besides, the GI50 with HOP-92 is 76.6 µM (inactive); with M14, 71.3 µM (inactive); in the experiment on Malme-3M, 64.9 µM (inactive); with NCI-H23, 69.5 µM (inactive); in the experiment with NCI/ADR-RES, 51.2 µM (inactive); with OVCAR-3, 45.1 µM (inactive). Further, the GI50 is 95.9 µM (inactive) in the experiment with OVCAR-8; 60.4 µM (inactive) in the experiment with RXF 393; 71.9 µM (inactive) in the experiment with SF-295; > 100 µM (inactive) in the experiment on SNB-19; 33 µM (inactive) in the experiment with SNB-75; 36.2 µM (inactive) with SR. Further, in the experiment on UACC-62, the GI50 was 47.5 µM (inactive).

On to `OC(CN1CCCCC1)c1ccc(/C=C/c2ccc(Cl)cc2)cc1` (stereo unspecified), for which the GI50 in the experiment on A498 was 40 µM (inactive); with COLO 205, 16.7 µM (inactive); in the experiment on EKVX it was > 100 µM (inactive); with HCC 2998 it was 46 µM (inactive); with HCT-116 it was 38.9 µM (inactive); in the experiment on HCT-15, 25.2 µM. Also, the GI50 with HOP-62 is 94.8 µM (inactive); in the experiment on HOP-92 it was 50.6 µM (inactive); with M14, 19.9 µM (inactive); in the experiment on Malme-3M it was 60.3 µM (inactive); in the experiment with NCI-H23 it was > 100 µM (inactive); with NCI/ADR-RES it was > 100 µM (inactive). The GI50 in the experiment on OVCAR-3 is 89.1 µM (inactive); in the experiment with OVCAR-8, > 100 µM (inactive); in the experiment with RXF 393 it was > 100 µM (inactive); with SF-295 it was 40.7 µM (inactive); in the experiment on SNB-19 it was > 100 µM (inactive); in the experiment on SR, > 100 µM (inactive). Further, in the experiment on UACC-62, the GI50 was 24.3 µM (inactive).

On to `C1C2CC3CC1CC(c1nn4c(C56CC7CC(CC(C7)C5)C6)nnc4s1)(C2)C3`, for which the GI50 is > 100 µM (inactive) in the experiment with A498; > 100 µM (inactive) in the experiment on COLO 205; > 100 µM (inactive) in the experiment on EKVX; > 100 µM (inactive) in the experiment with HCC 2998; > 100 µM (inactive) with HCT-116; over 100 µM with HCT-15. In addition, the GI50 with HOP-62, in the experiment on HOP-92, with M14, in the experiment with Malme-3M, in the experiment on NCI-H23 and in the experiment on NCI/ADR-RES was > 100 µM (inactive) throughout. Further, the GI50 in the experiment on OVCAR-3, in the experiment on RXF 393, in the experiment with SF-295, in the experiment on SNB-19, in the experiment on SNB-75 and with SR was > 100 µM (inactive) throughout. Moreover, the GI50 in the experiment with UACC-62 was > 100 µM (inactive).

With `COc1ccc2c(c1)CCc1c-2n(CCN2CCOCC2)c2ccc(OC)cc12`, the GI50 in the experiment on A498 is > 100 µM (inactive); in the experiment with COLO 205, 32.8 µM (inactive); in the experiment on HCC 2998, 3.92 µM (inactive); in the experiment on HCT-116, 63.2 µM (inactive); with HCT-15 it was 41 µM; in the experiment on HOP-62, > 100 µM (inactive). Further, the GI50 in the experiment with HOP-92 was > 100 µM (inactive); in the experiment on M14 it was 28 µM (inactive); in the experiment on Malme-3M, 75.2 µM (inactive); in the experiment with NCI-H23, > 100 µM (inactive); in the experiment on NCI/ADR-RES it was > 100 µM (inactive); with OVCAR-3 it was > 100 µM (inactive). Besides, the GI50 with OVCAR-8 is > 100 µM (inactive); in the experiment with RXF 393, > 100 µM (inactive); in the experiment on SF-295 it was 61.4 µM (inactive); with SNB-75, 0.0515 µM (active); in the experiment with SR, 10.5 µM (inactive); in the experiment with UACC-62, > 100 µM (inactive).

Turning to `COC1OC(C)/C(=N/O)C2OC(C)(C)OC12` (stereo unspecified), the GI50 was > 100 µM (inactive) in the experiment with A498; > 100 µM (inactive) in the experiment with COLO 205; > 100 µM (inactive) in the experiment on EKVX; > 100 µM (inactive) in the experiment with HCC 2998; > 100 µM (inactive) with HCT-116; over 100 µM in the experiment on HCT-15. The GI50 with HOP-62, in the experiment on HOP-92, in the experiment on M14, in the experiment on Malme-3M, in the experiment with NCI-H23 and in the experiment with NCI/ADR-RES was > 100 µM (inactive) in each case. In addition, the GI50 with OVCAR-3, in the experiment on OVCAR-8, in the experiment with RXF 393, with SF-295, in the experiment with SNB-19 and in the experiment with SR was > 100 µM (inactive) each time. The GI50 in the experiment on UACC-62 is > 100 µM (inactive).

As for `O=c1[nH]nc(-c2ccccc2)c2[nH]c3c4ccccc4ccc3c12`, the GI50 is 1.51 µM (inactive) with A498; 0.74 µM (active) with COLO 205; 3.44 µM (inactive) with EKVX; 0.948 µM (active) with HCC 2998; 0.942 µM (active) with HCT-116; 0.643 µM with HCT-15. Also, the GI50 in the experiment on HOP-62 was 2.77 µM (inactive); with HOP-92, 20.3 µM (inactive); with M14, 2.66 µM (inactive); in the experiment with Malme-3M, 4.83 µM (inactive); in the experiment with NCI-H23 it was 2.15 µM (inactive); in the experiment with NCI/ADR-RES it was 0.379 µM (active). For the same compound, the GI50 is 0.424 µM (active) in the experiment with OVCAR-3; 1.58 µM (inactive) with RXF 393; 0.461 µM (active) in the experiment with SF-295; 1.62 µM (inactive) in the experiment on SNB-19; 3.93 µM (inactive) with SNB-75; 0.251 µM (active) in the experiment on SR. For the same compound, in the experiment on UACC-62, the GI50 was 1.2 µM (inactive).

For the compound `Cc1ccc(OCC2OC(n3cnc4c(Cl)nc(Cl)nc43)CC2Oc2ccc(C)cc2)cc1` (stereo unspecified), the GI50 in the experiment on A498 is 23.1 µM (inactive); in the experiment with COLO 205, 1.96 µM (inactive); in the experiment on EKVX, 3.52 µM (inactive); in the experiment on HCC 2998 it was 16.5 µM (inactive); in the experiment with HCT-116, 1.91 µM (inactive); in the experiment with HCT-15, 1.82 µM. For the same compound, the GI50 with HOP-62 was 2.56 µM (inactive); in the experiment on HOP-92, 2.28 µM (inactive); in the experiment on M14, 1.85 µM (inactive); with Malme-3M, 2.18 µM (inactive); with NCI-H23, 1.85 µM (inactive); in the experiment on NCI/ADR-RES, 1.97 µM (inactive). The GI50 in the experiment with OVCAR-3 was 2.37 µM (inactive); with OVCAR-8, 2.31 µM (inactive); in the experiment on SF-295, 2.52 µM (inactive); in the experiment on SNB-19 it was 1.5 µM (inactive); in the experiment on SNB-75, 2.52 µM (inactive); in the experiment on SR, 2.49 µM (inactive). Also, in the experiment with UACC-62, the GI50 was 1.98 µM (inactive).

Turning to `CCc1nc(N)nc(N)c1-c1ccc([N+](=O)[O-])c(NCc2ccccc2)c1`, the GI50 with A498 is 15.5 µM (inactive); with COLO 205, 14.7 µM (inactive); in the experiment on EKVX it was 11.2 µM (inactive); in the experiment with HCC 2998, 15.2 µM (inactive); with HCT-116 it was 7.36 µM (inactive); in the experiment with HCT-15, 12.3 µM. Besides, the GI50 in the experiment with HOP-62 was 12.4 µM (inactive); with HOP-92, 10.6 µM (inactive); in the experiment on M14, 12.4 µM (inactive); with NCI-H23, 14.5 µM (inactive); in the experiment on NCI/ADR-RES, 10.7 µM (inactive); with OVCAR-3, 13.2 µM (inactive). Moreover, the GI50 with OVCAR-8 is 16.5 µM (inactive); in the experiment on RXF 393 it was 14.4 µM (inactive); with SF-295, 10.4 µM (inactive); with SNB-19 it was 16.4 µM (inactive); in the experiment on SNB-75, 10.1 µM (inactive); with SR, 10.3 µM (inactive). Also, the GI50 in the experiment on UACC-62 was 15.7 µM (inactive).

For `CCOC(=O)/C(C#N)=C/c1ccc(SCc2ccco2)c([N+](=O)[O-])c1`, the GI50 in the experiment with A498, in the experiment with COLO 205, with EKVX, in the experiment with HCC 2998, in the experiment on HCT-116 and with HOP-62 was > 100 µM (inactive) throughout. Moreover, the GI50 in the experiment with HOP-92, in the experiment on M14, in the experiment with Malme-3M, with NCI-H23, in the experiment with NCI/ADR-RES and in the experiment with OVCAR-3 was > 100 µM (inactive) each time. In addition, the GI50 in the experiment on OVCAR-8, in the experiment with RXF 393, with SF-295, in the experiment with SNB-19, in the experiment on SNB-75 and in the experiment with SR was > 100 µM (inactive) throughout. In addition, in the experiment with UACC-62, the GI50 was 57 µM (inactive).

For `CCCCCn1c(=O)c2c(=O)[nH][nH]c2c2ccccc21`, the GI50 was > 100 µM (inactive) with A498; > 100 µM (inactive) in the experiment with COLO 205; > 100 µM (inactive) in the experiment with HCC 2998; > 100 µM (inactive) in the experiment on HCT-116; over 100 µM in the experiment on HCT-15; > 100 µM (inactive) in the experiment with HOP-62. Besides, the GI50 in the experiment with HOP-92, in the experiment on Malme-3M, with NCI-H23, with NCI/ADR-RES, with OVCAR-3 and in the experiment on OVCAR-8 was > 100 µM (inactive) in each case. Also, the GI50 in the experiment with RXF 393, with SF-295, in the experiment on SNB-75, in the experiment with SR and in the experiment on UACC-62 was > 100 µM (inactive) in each case.
